{
  "source": "patent US8883801B2",
  "about": "“Substituted pyrazolo[1,5-a]pyrimidines as mTOR inhibitors” (Merck Sharp & Dohme Corp., priority 2010, dated 2014)",
  "target": "human mTOR enzyme (Homo sapiens, UniProt P42345)",
  "sequence (P42345 1360-2549 limits assumed)": "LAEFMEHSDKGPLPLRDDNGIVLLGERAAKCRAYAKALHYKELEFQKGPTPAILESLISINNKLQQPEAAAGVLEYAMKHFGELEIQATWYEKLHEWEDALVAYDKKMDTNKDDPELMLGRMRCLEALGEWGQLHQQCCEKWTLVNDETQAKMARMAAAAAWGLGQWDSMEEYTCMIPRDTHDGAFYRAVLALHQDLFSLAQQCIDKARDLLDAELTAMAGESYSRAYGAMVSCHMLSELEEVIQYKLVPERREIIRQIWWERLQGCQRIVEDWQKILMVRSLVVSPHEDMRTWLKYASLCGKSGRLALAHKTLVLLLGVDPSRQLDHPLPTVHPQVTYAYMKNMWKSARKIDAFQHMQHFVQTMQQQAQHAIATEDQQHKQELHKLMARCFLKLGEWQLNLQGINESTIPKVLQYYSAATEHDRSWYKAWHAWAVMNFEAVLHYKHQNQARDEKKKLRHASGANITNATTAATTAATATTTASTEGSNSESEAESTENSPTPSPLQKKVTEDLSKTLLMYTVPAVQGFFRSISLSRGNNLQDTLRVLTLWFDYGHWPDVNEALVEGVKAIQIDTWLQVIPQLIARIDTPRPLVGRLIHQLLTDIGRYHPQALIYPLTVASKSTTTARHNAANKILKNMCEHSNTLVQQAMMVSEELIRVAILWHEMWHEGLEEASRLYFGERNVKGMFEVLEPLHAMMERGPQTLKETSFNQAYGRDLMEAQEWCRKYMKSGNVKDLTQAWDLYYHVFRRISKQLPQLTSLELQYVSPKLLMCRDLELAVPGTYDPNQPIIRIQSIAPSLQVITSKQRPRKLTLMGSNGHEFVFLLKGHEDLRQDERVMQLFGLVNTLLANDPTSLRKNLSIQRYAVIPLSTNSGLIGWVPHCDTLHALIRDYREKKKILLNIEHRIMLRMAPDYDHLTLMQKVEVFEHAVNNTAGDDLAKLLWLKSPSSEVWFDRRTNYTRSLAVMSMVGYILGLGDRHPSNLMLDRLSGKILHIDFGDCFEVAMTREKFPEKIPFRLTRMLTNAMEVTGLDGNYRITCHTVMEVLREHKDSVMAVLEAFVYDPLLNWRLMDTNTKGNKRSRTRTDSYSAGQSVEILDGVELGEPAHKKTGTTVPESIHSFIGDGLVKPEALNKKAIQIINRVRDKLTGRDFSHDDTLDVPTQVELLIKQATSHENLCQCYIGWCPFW",
  "test": "HTRF mTOR enzyme (kinase) assay",
  "format": "biochemical",
  "conditions": "rated class; 5 μM ATP, 0.2 μM GST-S6K; read-out: hMTOR IC50",
  "method": "Methods: An HTRF mTOR enzyme assay was developed to assess the compounds' inhibitory activity. The mTOR assay buffer contained 10 mM Hepes (pH 7.4), 50 mM NaCl, […] BSA, 50 mM […], 10 mM MnCl2 and 0.5 mM DTT. […] 20 ng of human mTOR enzyme (<5% pure was preincubated with the compound for 10 minutes followed by the addition of 5 μM ATP and 0.2 μM GST-S6K (Zhang et al., Protein Expression and Purification 46, pp 414-420 (2006)). The reaction was incubated for one hour at 30° C. Anti phospho p70-S6K(Thr389) (˜1.7 ng/well, anti-phospho-p70S6K-cryptate (Pho-p70S6-Kin-K cat#64CUSKAY, from Cisbio)) and anti GST-XL665 (1:1 Ratio with the substrate GST-S6K, anti GST-XL665, cat#61GSTXLB) Cisbio) were added after the reaction was stopped. The plates were read (PHERAstar, BMG) at least 2 hours after adding the anti phospho p70-S6K and the anti GST-XL665.\nIC50 DETERMINATIONS: Dose-response curves were plotted from the inhibition data generated, each in duplicate, from 8 point serial dilutions of inhibitory compounds. Concentration of compound was plotted against the HTRF em665/em590 ratio signal. To generate IC50 values, the dose-response curves were fitted to a standard sigmoidal curve and IC50 values were derived by nonlinear regression analysis.",
  "data": [
    {"smiles": "COCCO[C@]1(C(=O)O)CC[C@@H](c2nc3c(-c4cnn(-c5ccc(S(C)(=O)=O)cc5)c4)cnn3c(N)c2S(C)(=O)=O)CC1", "note": "[Compound 53, (1R,4R)-4-(7-amino-6-(methylsulfonyl)-3-(1-(4-(methylsulfonyl)phenyl)-1H-pyrazol-4-yl)pyrazolo[1,5-a]pyrimidin-5-yl)-1-(2-methoxyethoxy)cyclohexanecarboxylic acid]", "values": [
      {"measurement": "IC50", "result": "100 to 1000", "unit": "nM"}
    ]},
    {"smiles": "COCCO[C@]1(C(=O)O)CC[C@@H](c2nc3c(-c4ccc(-c5ccn(C)n5)[n+]([O-])c4)cnn3c(N)c2S(C)(=O)=O)CC1", "note": "[Compound 45, 5-(7-amino-5-((1R,4R)-4-carboxy-4-(2-methoxyethoxy)cyclohexyl)-6-(methylsulfonyl)-pyrazolo[1,5-a]pyrimidin-3-yl)-2-(1-methyl-1H-pyrazol-3-yl)pyridine 1-oxide]", "values": [
      {"measurement": "IC50", "result": "1 to 100", "unit": "nM"}
    ]},
    {"smiles": "COCCO[C@]1(C(=O)c2nnc[nH]2)CC[C@H](c2nc3c(-c4ccc(-c5ccccc5)nc4)cnn3c(N)c2S(C)(=O)=O)CC1", "note": "[Compound 124, ((1S,4S)-4-(7-amino-6-(methylsulfonyl)-3-(6-phenylpyridin-3-yl)pyrazolo[1,5-a]pyrimidin-5-yl)-1-(2-methoxyethoxy)cyclohexyl)(4H-1,2,4-triazol-3-yl)methanone]", "values": [
      {"measurement": "IC50", "result": "1 to 100", "unit": "nM"}
    ]},
    {"smiles": "COCCO[C@]1(C(=O)CO)CC[C@@H](c2nc3c(-c4ccc(-c5ccccc5)nc4)cnn3c(N)c2S(C)(=O)=O)CC1", "note": "[Compound 130, 1-((1R,4R)-4-(7-amino-6-(methylsulfonyl)-3-(6-phenylpyridin-3-yl)pyrazolo[1,5-a]pyrimidin-5-yl)-1-(2-methoxyethoxy)cyclohexyl)-2-hydroxyethanone]", "values": [
      {"measurement": "IC50", "result": "1 to 100", "unit": "nM"}
    ]},
    {"smiles": "COCC1(CO)CCC(c2nc3c(-c4cnn(-c5ccccc5)c4)cnn3c(N)c2Br)CC1", "note": "(stereo not drawn) [Compound 167, (4-(7-amino-6-bromo-3-(1-phenyl-1H-pyrazol-4-yl)pyrazolo[1,5-a]pyrimidin-5-yl)-1-(methoxymethyl)-cyclohexyl)methanol]", "values": [
      {"measurement": "IC50", "result": "1 to 100", "unit": "nM"}
    ]},
    {"smiles": "COCCO[C@]1(C(=O)O)CC[C@H](c2nc3c(-c4ccc(-c5cscn5)nc4)cnn3c(N)c2C(C)=O)CC1", "note": "[Compound 61, (1S,4S)-4-(6-acetyl-7-amino-3-(6-(thiazol-4-yl)pyridin-3-yl)pyrazolo[1,5-a]pyrimidin-5-yl)-1-(2-methoxyethoxy) cyclohexanecarboxylic acid]", "values": [
      {"measurement": "IC50", "result": "1 to 100", "unit": "nM"}
    ]},
    {"smiles": "CO[C@]1(CC(=O)O)CC[C@@H](c2nc3c(-c4ccc(-c5ccccc5)nc4)cnn3c(N)c2Br)CC1", "note": "[Compound 81]", "values": [
      {"measurement": "IC50", "result": "100 to 1000", "unit": "nM"}
    ]},
    {"smiles": "COCCO[C@]1(C(=O)N(C)OC)CC[C@@H](c2nc3c(-c4cnn(-c5ccccc5)c4)cnn3c(N)c2S(C)(=O)=O)CC1", "note": "[Compound 97, (1R,4R)-4-(7-amino-6-(methylsulfonyl)-3-(1-phenyl-1H-pyrazol-4-yl)pyrazolo[1,5-a]pyrimidin-5-yl)-N-methoxy-1-(2-methoxyethoxy)-N-methylcyclohexane-carboxamide]", "values": [
      {"measurement": "IC50", "result": "1 to 100", "unit": "nM"}
    ]},
    {"smiles": "COC(=O)c1cccc(-c2ccc(-c3cnn4c(N)c(C(C)=O)c(C5CCC(O)(CO)CC5)nc34)cn2)c1", "note": "(stereo not drawn) [Compound 150, methyl 3-(5-(6-acetyl-7-amino-5-(4-hydroxy-4-(hydroxymethyl)-cyclohexyl)-pyrazolo-[1,5-a]pyrimidin-3-yl)pyridin-2-yl)benzoate]", "values": [
      {"measurement": "IC50", "result": "1 to 100", "unit": "nM"}
    ]},
    {"smiles": "COCCO[C@]1(C(=O)c2nnc[nH]2)CC[C@H](c2nc3c(-c4cnn(-c5ccccc5)c4)cnn3c(N)c2S(C)(=O)=O)CC1", "note": "[Compound 123, ((1S,4S)-4-(7-amino-6-(methylsulfonyl)-3-(1-phenyl-1H-pyrazol-4-yl)pyrazolo[1,5-a]pyrimidin-5-yl)-1-(2-methoxyethoxy)cyclohexyl)(4H-1,2,4-triazol-3-yl)methanone]", "values": [
      {"measurement": "IC50", "result": "1 to 100", "unit": "nM"}
    ]},
    {"smiles": "CCONC(=O)[C@]1(OCCOC)CC[C@H](c2nc3c(-c4cnn(-c5ccccc5)c4)cnn3c(N)c2S(C)(=O)=O)CC1", "note": "[Compound 98, (1R,4R)-4-(7-amino-6-(methylsulfonyl)-3-(1-phenyl-1H-pyrazol-4-yl)pyrazolo[1,5-a]pyrimidin-5-yl)-N-ethoxy-1-(2-methoxyethoxy)-cyclohexane-carboxamide]", "values": [
      {"measurement": "IC50", "result": "1 to 100", "unit": "nM"}
    ]},
    {"smiles": "COC[C@]1(C(=O)O)CC[C@H](c2nc3c(-c4cnn(-c5ccccc5)c4)cnn3c(N)c2C(C)=O)CC1", "note": "[Compound 20, (1R,4R)-4-(6-acetyl-7-amino-3-(1-phenyl-1H-pyrazol-4-yl)pyrazolo[1,5-a]pyrimidin-5-yl)-1-(methoxymethyl)-cyclohexane-carboxylic acid]", "values": [
      {"measurement": "IC50", "result": "100 to 1000", "unit": "nM"}
    ]},
    {"smiles": "COCCO[C@]1(C(=O)NOCC2CC2)CC[C@@H](c2nc3c(-c4ccc(-c5ccccc5)nc4)cnn3c(N)c2S(C)(=O)=O)CC1", "note": "[Compound 106, (1R,4R)-4-(7-amino-6-(methylsulfonyl)-3-(6-phenylpyridin-3-yl)pyrazolo[1,5-a]pyrimidin-5-yl)-N-(cyclopropylmethoxy)-1-(2-methoxyethoxy)-cyclohexane-carboxamide]", "values": [
      {"measurement": "IC50", "result": "1 to 100", "unit": "nM"}
    ]},
    {"smiles": "COCCO[C@]1(C(=O)NOCC2CC2)CC[C@@H](c2nc3c(-c4cnn(-c5ccccc5)c4)cnn3c(N)c2S(C)(=O)=O)CC1", "note": "[Compound 99, (1R,4R)-4-(7-amino-6-(methylsulfonyl)-3-(1-phenyl-1H-pyrazol-4-yl)pyrazolo[1,5-a]pyrimidin-5-yl)-N-(cyclopropylmethoxy)-1-(2-methoxyethoxy)-cyclohexane-carboxamide]", "values": [
      {"measurement": "IC50", "result": "1 to 100", "unit": "nM"}
    ]},
    {"smiles": "CC(=O)c1c(C2CCC(O)(CO)CC2)nc2c(-c3ccc(-c4ccc(O)nc4)nc3)cnn2c1N", "note": "(stereo not drawn) [Compound 147, 1-(7-amino-3-(6′-hydroxy-2,3′-bipyridin-5-yl)-5-(4-hydroxy-4-(hydroxymethyl)-cyclohexyl)-pyrazolo-[1,5-a]pyrimidin-6-yl)ethanone]", "values": [
      {"measurement": "IC50", "result": "1 to 100", "unit": "nM"}
    ]},
    {"smiles": "COC[C@]1(O)CC[C@H](c2nc3c(-c4ccc(-c5ccccc5)nc4)cnn3c(N)c2Br)CC1", "note": "[Compound 163, (1R,4R)-4-(7-amino-6-bromo-3-(6-phenylpyridin-3-yl)pyrazolo[1,5-a]pyrimidin-5-yl)-1-(methoxymethyl)cyclohexanol]", "values": [
      {"measurement": "IC50", "result": "1 to 100", "unit": "nM"}
    ]},
    {"smiles": "CC(=O)c1c(N)n2ncc(-c3cnn(-c4cnn(C)c4)c3)c2nc1[C@H]1CC[C@](O)(CO)CC1", "note": "[Compound 149, 1-(7-amino-5-((1S,4S)-4-hydroxy-4-(hydroxymethyl)-cyclohexyl)-3-(1′-methyl-1′H-1,4′-bipyrazol-4-yl)pyrazolo[1,5-a]pyrimidin-6-yl)ethanone]", "values": [
      {"measurement": "IC50", "result": "100 to 1000", "unit": "nM"}
    ]},
    {"smiles": "COC(=O)c1cc(-c2ccc(-c3cnn4c(N)c(C(C)=O)c([C@H]5CC[C@](O)(CO)CC5)nc34)cn2)ccc1OC", "note": "[Compound 154, methyl 5-(5-(6-acetyl-7-amino-5-((1S,4S)-4-hydroxy-4-(hydroxymethyl)-cyclohexyl)-pyrazolo-[1,5-a]pyrimidin-3-yl)pyridin-2-yl)-2-methoxybenzoate]", "values": [
      {"measurement": "IC50", "result": "1 to 100", "unit": "nM"}
    ]},
    {"smiles": "COCCO[C@]1(C(=O)O)CC[C@H](c2nc3c(-c4ccc(-c5nccs5)nc4)cnn3c(N)c2C(C)=O)CC1", "note": "[Compound 59]", "values": [
      {"measurement": "IC50", "result": "1 to 100", "unit": "nM"}
    ]},
    {"smiles": "COCCONC(=O)[C@]1(OCCOC)CC[C@H](c2nc3c(-c4cnn(-c5ccccc5)c4)cnn3c(N)c2S(C)(=O)=O)CC1", "note": "[Compound 101]", "values": [
      {"measurement": "IC50", "result": "1 to 100", "unit": "nM"}
    ]},
    {"smiles": "CO[C@]1(CC(=O)O)CC[C@H](c2nc3c(-c4ccc(-c5ccccc5)nc4)cnn3c(N)c2Br)CC1", "note": "[Compound 80, 2-((1S,4S)-4-(7-amino-6-bromo-3-(6-phenylpyridin-3-yl)pyrazolo[1,5-a]pyrimidin-5-yl)-1-methoxycyclohexyl)acetic acid]", "values": [
      {"measurement": "IC50", "result": "100 to 1000", "unit": "nM"}
    ]}
  ]
}
